Test results published in publication PMC8154124, “Design, Synthesis, Anticancer Evaluation, Enzymatic Assays, and a Molecular Modeling Study of Novel Pyrazole–Indole Hybrids” (ACS Omega, 2021).

What was measured:
[1] = system: human colorectal carcinoma (HCT-116); experiment: MTT cytotoxicity assay, HCT-116; type: cell-based; details: 48 h, mean ± SD
Method: (§1) The cells of human liver carcinoma (HepG2), human breast adenocarcinoma (MCF-7), human colorectal carcinoma (HCT-116), and human lung carcinoma (A549) were purchased from the American Type Culture Collection (Rockville, MD). All cells were maintained in a Dulbecco’s modified Eagle’s medium (DMEM), which was supplemented with 10% of heat-inactivated fetal bovine serum (FBS) and 100 U/mL penicillin and streptomycin each. The cells were grown at 37 °C in a humidified atmosphere of 5% CO2.
(§2) The cytotoxicity activities on the human liver carcinoma (HepG2), human breast adenocarcinoma (MCF-7), human colorectal carcinoma (HCT-116), and human lung carcinoma (A549) cell lines were estimated employing the 3-(4,5-dimethyl-2-thiazolyl)-2,5-diphenyl-2H-tetrazolium bromide (MTT) assay, which was grounded on the reduction of the tetrazolium salt by mitochondrial dehydrogenases in viable cells.[51],[52] The cells were dispensed in a 96-well sterile microplate (3 × 10^4 cells/well), followed by their incubation at 37 °C with a series of different concentrations of 10 μL of each compound or doxorubicin (positive control, in DMSO) for 48 h in a serum-free medium prior to the MTT assay. Subsequently, the media were carefully removed, and 40 μL of MTT (2.5 mg/mL) was added to each well and then incubated for an additional 4 h. Purple formazan dye crystals were solubilized by the addition of 200 μL of DMSO. The absorbance was measured at 570 nm using a SpectraMax Paradigm Multi-Mode microplate reader. The relative cell viability was expressed as the mean percentage of viable cells relative to the untreated control cells. All experiments were conducted in triplicate and were repeated on three different days. All of the values were represented as mean ± standard deviation (SD). The IC50s were determined by the SPSS probit analysis software program (SPSS Inc., Chicago, IL).

[2] = system: human breast adenocarcinoma (MCF-7); experiment: MTT cytotoxicity assay, MCF-7; type: cell-based; details: MCF7, 48 h, mean ± SD
Method: as §1, §2

[3] = system: human liver carcinoma (HepG2); experiment: MTT cytotoxicity assay, HepG2; type: cell-based; details: 48 h, mean ± SD
Method: as §1, §2

[4] = system: human lung carcinoma (A549); experiment: MTT cytotoxicity assay, A549; type: cell-based; details: 48 h, mean ± SD
Method: as §1, §2

HepG2 cancer cells [5] = experiment: Annexin V/PI apoptosis detection by flow cytometry; type: cell-based, human; details: negative control DMSO 1.49%
Method: The induction of apoptosis has been investigated using the annexin V/propidium iodide (PI) staining assay for both compounds 7a and 7b on HepG2.
(§3) Cell cycle analysis and apoptosis detection were carried out using flow cytometry.[62] Both HepG2 and MCF-7 cells were seeded at 8 × 10^4 and incubated at 37 °C and 5% CO2 overnight. After treatment with the tested compounds for 24 h, cell pellets were collected and centrifuged (300g, 5 min). For cell cycle analysis, the cell pellets were fixed with 70% ethanol on ice for 15 min and collected again. The collected pellets were incubated with propidium iodide (PI) staining solution (50 μg/mL PI, 0.1 mg/mL RNaseA, 0.05% Triton X-100) at room temperature for 1 h and analyzed using a Gallios flow cytometer (Beckman Coulter, Brea, CA). Apoptosis detection was performed using a FITC annexin V/PI commercial kit (Becton Dickenson, Franklin Lakes, NJ) following the manufacturer’s protocol. The samples were analyzed using fluorescence-activated cell sorting (FACS) with a Gallios flow cytometer (Beckman Coulter, Brea, CA) within 1 h after staining. Data were analyzed using Kaluza v1.2 (Beckman Coulter).

HepG2 cancer cells [6] = experiment: Cell cycle analysis by flow cytometry (PI staining); type: cell-based, human; details: for accumulation of cells at the Pre G1 phase, fold compared to the control / increase in S phase, fold compared to the reference control / reduction in the percentage of cells at the G2/M phase, fold: HepG2, 7a and 7b at 7.9 and 6.1 μM respectively, 24 h; for %preG / %DIP G2/M / %DIP G1 / %DIP S: HepG2, Figure 3; for %preG: negative control 1.49%; for %DIP G2/M: negative control 9.7%; for %DIP G1: negative control 43.72%; for %DIP S: negative control 46.58%
Method: To elucidate whether the cytotoxic activity is due to suppression of cell cycle progression, HepG2 cells were exposed to compounds 7a and 7b at concentrations of 7.9 and 6.1 μM, respectively, for 24 h and analyzed using flow cytometry. […] These compounds also provided a slight increase in S phases by 0.1- and 0.14-fold, respectively, compared to the reference control, as shown in Figure 3.
as §3

caspase-3 = experiment: Caspase-3 (active) ELISA in treated HepG2 cells; type: cell-based, human; details: for caspase-3 activation, fold higher than the negative control: HepG2, 7a and 7b at 7.9 and 6.1 μM respectively, 24 h; for caspase-3: HepG2 cells treated 24 h, cont. HepG2 67.3 ± 2.8
Method: It has been reported that caspases cascade through either intrinsic or extrinsic pathways that mediate the induction of apoptosis, which may lead to apoptotic cell death.[53]−[55] Caspase-3 is involved in cell shrinkage, chromatin condensation, and DNA fragmentation inside the cells, causing apoptosis induction.
Activities of caspase-3 were measured using the Invitrogen caspase-3 (Active) (human) ELISA kit, Catalog # KHO1091 (96 tests) (Invitrogen Corporation) according to the manufacturer’s instructions.

Bcl-2 = Bcl-2 ELISA in treated HepG2 cells; type: cell-based, human; details: for Bcl-2 level relative to control, fold: HepG2, versus control; for Bcl-2: HepG2 cells treated, cont. HepG2 6.222 ± 0.14
Method: Furthermore, it is well known that the antiapoptotic Bcl-2 protein plays a critical role in cancer resistance therapy.[56] Therefore, we have studied the effect of both compounds 7a and 7b on Bcl-2 protein expression levels. They provided a 0.5- and 0.4-fold decrease in the Bcl-2 concentration, respectively.
Activities of Bcl-2 were measured using the Invitrogen Zymed Bcl-2 ELISA Kit, Catalog # 99–0042 (96 tests) (Invitrogen Corporation) according to the manufacturer’s instructions.

Bax = Bax ELISA in treated HepG2 cells; type: cell-based, human; details: cont. HepG2 5.762 ± 1.18
Method: In addition, the pro-apoptotic protein (Bax) is a protein that accelerates apoptosis by binding to and antagonizing the death repressor activity of Bcl-2.[57] Following any apoptotic stimuli, Bax causes activation of caspase-3 and perpetuates the apoptotic cascade.[58] The Bax protein expression level is altered in various human malignancies.[59],[60] Therefore, the effect of both compounds 7a and 7b on the Bax expression level has been studied.
Activities of Bax were measured using the Human Bax ELISA kit (DRG Human Bax ELISA (EIA-4487) DRG International, Inc.) according to the manufacturer’s instructions.

CDK-2 enzyme = CDK-2 enzyme (Homo sapiens, UniProt P24941); experiment: In vitro CDK-2 enzyme inhibitory assessment (ELISA); type: biochemical
Method: Estimation of CDK-2 was performed using ELISA through an affinity tag labeled capture antibody and a reporter conjugated detector antibody, which immunocapture the sample analyte in solution. The addition of the standard and samples to the wells is carried out, followed by the addition of the antibody mix. After the incubation period is completed, the wells are washed, and the unrestrained substance is discarded. Then, TMB (3,3′,5,5′-tetramethylbenzidine) substrate is added, and prompted by horseradish peroxidase (HRP), blue coloration appeared. The reaction was stopped by the addition of a stop solution, completely changing the color from blue to yellow. Signals were created equivalently to the quantity of the bound analyte, and the intensity was recorded at a certain wavelength (450 nm) using a Robonik P2000 ELISA reader. The concentrations of the tested compounds were calculated from the plotted curve.

Row | Compound | IC50 [1] [µM] | IC50 [2] [µM] | IC50 [3] [µM] | IC50 [4] [µM] | total necrosis and apoptosis (early and late) percentage (HepG2 cancer cells [5]) [%] | accumulation of cells at the Pre G1 phase, fold compared to the control (HepG2 cancer cells [6]) [fold] | increase in S phase, fold compared to the reference control (HepG2 cancer cells [6]) [fold] | reduction in the percentage of cells at the G2/M phase, fold (HepG2 cancer cells [6]) [fold] | %preG (HepG2 cancer cells [6]) [%] | %DIP G2/M (HepG2 cancer cells [6]) [%] | %DIP G1 (HepG2 cancer cells [6]) [%] | %DIP S (HepG2 cancer cells [6]) [%] | caspase-3 activation, fold higher than the negative control (caspase-3) [fold] | caspase-3 (caspase-3) [pg/mL] | Bcl-2 level relative to control, fold (Bcl-2) [fold] | Bcl-2 (Bcl-2) [ng/mL] | Bax (Bax) [pg/mL] | IC50 (CDK-2 enzyme) [nM]
1 | Cc1ccc(NC(=O)c2c(Nc3ccccc3)n[nH]c2N=Cc2c[nH]c3ccccc23)cc1 [7b, 5-((1H-Indol-3-yl)methyleneamino)-3-(phenylamino)-N-(4-methylphenyl)-1H-pyrazole-4-carboxamide] | 19.6 ± 3.5 | 14.5 ± 2.5 | 7.9 ± 1.9 | 14.1 ± 2.1 | 27.51 | 18.5 | 0.14 | 29.4 | 27.51 | 0.33 | 46.39 | 53.28 | 5.8 | 469.8 ± 10 | 0.4 | 2.479 ± 0.07 | 272.6 ± 11.5 | 95 ± 100
2 | O=C(Nc1ccccc1)c1c(Nc2ccccc2)n[nH]c1N=Cc1c[nH]c2ccccc12 [7a, 5-((1H-Indol-3-yl)methyleneamino)-N-phenyl-3-(phenylamino)-1H-pyrazole-4-carboxamide] | 17.4 ± 3.2 | 10.6 ± 2.3 | 6.1 ± 1.9 | 23.7 ± 3.1 | 22.18 | 14.9 | 0.1 | 2.4 | 22.18 | 4.11 | 44.61 | 51.28 | 7 | 388.7 ± 7 | 0.5 | 3.123 ± 0.1 | 211.3 ± 5.9 | 74 ± 150
